Experimental findings from patent US10023593B2, “ALK kinase inhibitor, and preparation method and uses thereof” (BEIJING PEARL BIOTECHNOLOGY LIMITED LIABILITY COMPANY, priority 2014, dated 2018) are described below.

Structures are written as SMILES.

Usually IC50 stands for the concentration that gives 50% inhibition.

The test system of one test is NCI-H2228 cell line. In words: CellTiter-Glo cell proliferation inhibition on NCI-H2228 cell line. The format is cell-based. The conditions noted are these: Homo sapiens, NCI-H2228, 96 h, NCI-H2228 cells, 5000 cells/well, 4 days drug treatment. In a few lines:
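NCI-H2228 cells, 5000/well in RPMI-1640 + 10% FBS, treated with compounds 2 h after seeding (0.5% DMSO final) for 4 days at 37° C. Viability by CellTiter-Glo luminescence; inhibition relative to DMSO control, IC50 from curve fit.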
Background: ATP-based viability assays read luminescence as a measure of living cells.

The target of a further test is T1, Wild Type ALK kinase (Homo sapiens, UniProt Q9UM73).
T1 construct: purchased Sino-US Crown Bioscience, Inc. batch number ALK 20110607
T1 sequence (Q9UM73 19-1620): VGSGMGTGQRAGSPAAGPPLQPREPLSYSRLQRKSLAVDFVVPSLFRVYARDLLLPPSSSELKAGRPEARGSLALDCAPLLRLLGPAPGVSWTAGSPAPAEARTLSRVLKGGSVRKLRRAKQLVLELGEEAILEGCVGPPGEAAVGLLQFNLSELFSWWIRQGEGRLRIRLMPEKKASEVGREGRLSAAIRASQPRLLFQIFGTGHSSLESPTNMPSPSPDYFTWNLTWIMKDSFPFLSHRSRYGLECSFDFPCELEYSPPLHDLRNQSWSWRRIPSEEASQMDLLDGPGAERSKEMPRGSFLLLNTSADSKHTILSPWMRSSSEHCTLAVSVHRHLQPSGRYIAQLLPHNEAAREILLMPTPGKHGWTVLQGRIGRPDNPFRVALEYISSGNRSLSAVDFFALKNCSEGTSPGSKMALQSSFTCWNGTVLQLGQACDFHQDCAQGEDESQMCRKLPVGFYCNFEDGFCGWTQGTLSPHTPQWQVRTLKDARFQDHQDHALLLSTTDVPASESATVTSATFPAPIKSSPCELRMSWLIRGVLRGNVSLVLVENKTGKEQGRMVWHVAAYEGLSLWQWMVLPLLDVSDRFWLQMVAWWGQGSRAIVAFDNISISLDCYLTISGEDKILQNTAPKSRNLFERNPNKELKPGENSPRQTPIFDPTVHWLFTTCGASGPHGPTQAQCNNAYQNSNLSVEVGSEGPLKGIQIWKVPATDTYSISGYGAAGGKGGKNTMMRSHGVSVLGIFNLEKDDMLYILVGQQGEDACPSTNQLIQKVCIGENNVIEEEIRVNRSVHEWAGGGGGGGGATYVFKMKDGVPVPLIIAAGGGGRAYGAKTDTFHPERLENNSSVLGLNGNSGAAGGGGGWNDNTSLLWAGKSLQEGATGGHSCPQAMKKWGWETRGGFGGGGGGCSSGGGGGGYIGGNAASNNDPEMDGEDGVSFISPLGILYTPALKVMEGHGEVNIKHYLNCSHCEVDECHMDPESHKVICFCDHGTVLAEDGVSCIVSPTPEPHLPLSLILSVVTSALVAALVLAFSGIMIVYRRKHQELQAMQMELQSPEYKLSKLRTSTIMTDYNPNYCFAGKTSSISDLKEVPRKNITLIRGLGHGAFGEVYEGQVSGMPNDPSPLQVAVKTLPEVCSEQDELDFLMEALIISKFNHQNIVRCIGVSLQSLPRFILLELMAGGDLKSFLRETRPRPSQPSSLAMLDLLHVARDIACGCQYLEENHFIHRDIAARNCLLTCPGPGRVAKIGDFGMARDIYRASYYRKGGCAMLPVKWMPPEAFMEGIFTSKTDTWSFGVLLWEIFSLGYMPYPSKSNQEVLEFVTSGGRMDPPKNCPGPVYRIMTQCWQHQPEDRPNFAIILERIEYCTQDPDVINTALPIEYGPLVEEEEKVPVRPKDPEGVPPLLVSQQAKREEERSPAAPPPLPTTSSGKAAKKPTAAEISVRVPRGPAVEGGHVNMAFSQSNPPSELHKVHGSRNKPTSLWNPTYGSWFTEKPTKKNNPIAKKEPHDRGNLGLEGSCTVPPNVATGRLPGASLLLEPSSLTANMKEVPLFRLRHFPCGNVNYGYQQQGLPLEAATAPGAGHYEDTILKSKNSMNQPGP
In words: HTRF KinEASE-TK assay, inhibitory activity on wild type ALK kinase. It counts as biochemical. The conditions noted are these: wild type ALK 1 ng/μl, substrate 1 μM, 30° C. 35 minutes, read-out: Inhibition on ALK kinases (wildtype), IC50. The source says:
1. Inhibitory Activities of the Compounds of the Present Invention on Wild Type ALK Kinases
? experimental method ? HTRF KinEASE™-TK Assay kit from Cisbio company was used to detect inhibitory activities of the compounds on wildtype ALK kinases (wild type ALK kinases).
(§1) ? instrument ? Envision 2104 plate reader from PerKinElmer company.
? experiment material ? HTRF KinEASE™-TK Assay Kit (Cisbio company, catalog No. 62TK0PEC); Wild Type ALK kinase (produced by Sino-US Crown Bioscience, Inc., batch number ALK 20110607); DTT (Gibco BRL company, catalog No. 15508-012); MgCl2 (Sigma Aldrich company, catalog No. M-2670); ATP (Sigma Aldrich company, catalog No. A-7699); DMSO (AMRESCO company, catalog No. 0231); EDTA (AMRESCO company, catalog No. 0105); 96 wells plates (for diluting compounds) (CITOTEST company, catalog No. Ref36020096D); OptiPlate™-384 (White), PerkinElmer company, catalog No. P12-004)
(§2) ? experimental condition ? Compounds (the final concentration of DMSO was 1%), the reaction substrate (the final concentration was 1 μM), ATP (the final concentration was 2004), and Wildtype ALK kinases (the final concentration was 1 ng/μl) were mixed respectively in a final volume of 10 μl reaction system (containing 5 mM MgCl2, 1× Kinase buffer, and 1 mM DTT). The mixture was reacted at 30° C. for 35 minutes after shaking for 30 seconds. After completion of the reaction, each well was added with 5 μl Sa-XL665 and 5 μl TK Antibody-Eu(K), and placed in the dark for 60 minutes to end the reaction after uniform mixing. The data was read from PerkinElmer EnVision plate reader ([…]), the 665/615 ratio was calculated, and the data was analyzed.
(§3) ? tested samples ? Compounds from the examples.
(§4) ? data analysis ? Minimum 665/615 ratio (Rmin, 665/615 ratio under the condition that 10.4 μM positive control drug LDK-378 was added)
(§5) Maximum 665/615 ratio (Rmax, 665/615 ratio under the condition that no compound was added)
(§6) Tested 665/615 ratio (Rcompound, 665/615 ratio under the condition that a given concentration of compound was added) Inhibition rate (%)=[1−(Rcompound−Rmin)/(Rmax−Rmin)]×100
(§7) ? data processing ? IC50 of compounds was calculated by using XLfit program in Excel.
Background: In TR-FRET formats the signal depends on donor and acceptor labels being close together.

In the next test the target is T2, L1196M mutant ALK kinase (Homo sapiens, UniProt Q9UM73, L1196M).
T2 construct: purchased Sino-US Crown Bioscience, Inc. batch number ALKm_20110923
T2 sequence (Q9UM73 19-1620 L1196M): as the sequence (Q9UM73 19-1620) above, with L1178M counted along it
The test can be described thus: HTRF KinEASE-TK assay, inhibitory activity on L1196M mutant ALK kinase. It counts as biochemical. The conditions noted are these: L1196M mutant ALK 1 ng/μl, substrate 1 μM, ATP 5 μM, 30° C. 35 minutes, read-out: Inhibition on ALK kinases (L1196M mutant), IC50.
Source text: 2. Inhibitory Activities of the Compounds of the Present Invention on L1196M Mutant ALK Kinases
? experimental method ? HTRF KinEASE™-TK Assay kit from Cisbio company was used to detect inhibitory activities of the compounds on L1196M mutant ALK kinases.
as §1
? experiment material ? HTRF KinEASE™-TK Assay Kit (Cisbio company, catalog No. 62TK0PEC); L1196M mutant ALK kinase (produced by Sino-US Crown Bioscience, Inc., batch number ALKm_20110923); DTT (Gibco BRL company, catalog No. 15508-012); MgCl2 (Sigma Aldrich company, catalog No. M-2670); ATP (Sigma Aldrich company, catalog No. A-7699, batch number 051M7014V); DMSO (AMRESCO company, catalog No. 0231); EDTA (AMRESCO company, catalog No. 0105); 96 wells plates (for diluting compounds) (CITOTEST company, catalog No. Ref36020096D); OptiPlate™-384 (White), PerkinElmer company, catalog No. P12-004)
as §2, with “5 μM),” for “2004),”, “L1196M mutant” for “Wildtype”
as §3, §4, §5, §6, §7

`Cc1cc(Nc2ncc(Cl)c(Nc3cn(C)nc3C#N)n2)c(OC2CC2)cc1C1CCN(C)CC1` [Final product 211, 5-chloro-N^2-[2-cyclopropoxy-4-(1-methyl-piperidin-4-yl)-5-methyl-phenyl]-N^4-[1-methyl-3-cyano-1H-pyrazol-4-yl]-pyrimidin-2,4-diamine]: the results for the 50% inhibitory concentration (IC50) in the test with NCI-H2228 cell line, at Wild Type ALK kinase and on L1196M mutant ALK kinase were 272 nM, 3 nM and 11 nM, respectively.
The matching figures for `Cc1cc(Nc2nc(Nc3cc(C)c(C4CCN(C)CC4)cc3OC(C)C)ncc2Cl)n[nH]1` [Final product 212, 5-chloro-N^2-[2-isopropoxy-4-(1-methyl-piperidin-4-yl)-5-methyl-phenyl]-N^4-[5-methyl-1H-pyrazol-3-yl]-pyrimidin-2,4-diamine, reference compound]: 725 nM, 13 nM and 37 nM.
The matching figures for `Cc1cc(Nc2nc(Nc3cc(C)c(C4CCN(C(C)C)CC4)cc3C)ncc2Cl)n[nH]1` [Final product 213, reference compound]: 964 nM, 19 nM and 22 nM.
The matching figures for `Cc1cc(Nc2nc(Nc3cc(C)c(C4CCCNC4)cc3C)ncc2Cl)n[nH]1` (stereo not drawn) [Final product 214, reference compound]: 1240 nM, 22 nM and 54 nM.
Consider `Cc1cc(Nc2nc(Nc3cc(C)c(C4CCN(CCO)CC4)cc3C)ncc2Cl)n[nH]1` [Final product 215, reference compound], for which the IC50 with NCI-H2228 cell line stood at 1040 nM; on Wild Type ALK kinase, 28 nM; at L1196M mutant ALK kinase, 39 nM.
The matching figures for `CNC(=O)CN1CCC(c2cc(OC)c(Nc3ncc(Cl)c(Nc4cc(C)n[nH]4)n3)cc2C)CC1` [Final product 216, reference compound]: 948 nM, 17 nM and 28 nM.
For `Cc1cc(Nc2nc(Nc3cc(C)c(C4CCN(S(C)(=O)=O)CC4)cc3C)ncc2Cl)n[nH]1` [Final product 217, reference compound] the same measures were 1130 nM, 20 nM and 69 nM.
The matching figures for `Cc1cc(Nc2nc(Nc3cc(C)c([C@H]4CC[C@H](N5CCN(C)CC5)CC4)cc3F)ncc2Cl)[nH]n1` [Final product 218, reference compound]: 1070 nM, 27 nM and 49 nM.
